Source: publication PMC6290777, “Inhalation of the prodrug PI3K inhibitor CL27c improves lung function in asthma and fibrosis” (Nature Communications, 2018)
Several values for one entry are separate records, joined by “and”; a condition that tells them apart may be missing. Identical values can stand only once.

How the values were obtained:
PI3Kα = biological target: T1, PI3Kα (Homo sapiens, UniProt P42336); assay: Kinome profiling assay (Nanosyn 250-kinase panel); assay type: biochemical
T1 construct: purchased Nanosyn Biology, Inc., Santa Clara, CA, USA
Procedure: Supplementary Figure 2: Kinase selectivity of CL27e
Kinase selectivity of the CL27c active metabolite, CL27e, was evaluated at 0.02 µM and 0.2 µM using the Nanosyn 250-kinase panel. Red color indicates selectivity for PI3Kα, on which CL27e […]
Results are expressed as mean percentage inhibition for each
(1 picture or pasted object on this page, not shown here)
Human lung fibroblast cell culture
Two separate human lung fibroblast cell lines isolated from IPF patients were used: LL97a derived from a person (ATCC, Manassas, USA) and DHLF-IPF (#CC-7231, Lonza, Switzerland). Control cell lines were CCD-16Lu, obtained from a person that died of astrocytoma –a disease unrelated to IPF - (ATCC) and NHLF (#CC-2512; Lonza). […]
Caliper based assay, the reaction was terminated by addition of EDTA buffer. Substrate and product were separated and quantified electrophoretically using the microfluidic-based and the assay plate was read on Caliper LabChip 3000 Drug Discovery System from Caliper Life Sciences (Walthan, MA, USA). ADP Glo was another method of detection used for some kinase assays where data was obtained by quantifying the intensity of luminescence. For ADP Glo based assay, the reaction was terminated by applying the Promega ADP Glo Kinase Assay kit and the assay plate was read on a LJL Biosystems Analyst HT. […]

[1] = test system: fMLP-activated LPS-primed neutrophils; assay: ROS production by fMLP-activated LPS-primed neutrophils; assay type: cell-based, mouse; settings: fMLP 2.5 μM; CL27c 1 and 10 µM
Procedure: Production of ROS was determined by primary isolated neutrophils (5 × 10^6/mL) (as described above) with lipopolysaccharide (1 μg/mL) for 1 h and then preincubating them with luminol (20 μg/mL) and horseradish peroxidase (35 μg/mL) in RPMI medium plus 10% FCS. The cells were subsequently stimulated with 2.5 μM formyl-methionyl-leucyl-phenylalanine (fMLP, Sigma-Aldrich), and light emission was recorded every 5 sec for a period of 300 sec in a Berthold MicroLumat Plus luminometer (Berthold Technologies).

T1 sequence (P42336 whole entry, species assumed): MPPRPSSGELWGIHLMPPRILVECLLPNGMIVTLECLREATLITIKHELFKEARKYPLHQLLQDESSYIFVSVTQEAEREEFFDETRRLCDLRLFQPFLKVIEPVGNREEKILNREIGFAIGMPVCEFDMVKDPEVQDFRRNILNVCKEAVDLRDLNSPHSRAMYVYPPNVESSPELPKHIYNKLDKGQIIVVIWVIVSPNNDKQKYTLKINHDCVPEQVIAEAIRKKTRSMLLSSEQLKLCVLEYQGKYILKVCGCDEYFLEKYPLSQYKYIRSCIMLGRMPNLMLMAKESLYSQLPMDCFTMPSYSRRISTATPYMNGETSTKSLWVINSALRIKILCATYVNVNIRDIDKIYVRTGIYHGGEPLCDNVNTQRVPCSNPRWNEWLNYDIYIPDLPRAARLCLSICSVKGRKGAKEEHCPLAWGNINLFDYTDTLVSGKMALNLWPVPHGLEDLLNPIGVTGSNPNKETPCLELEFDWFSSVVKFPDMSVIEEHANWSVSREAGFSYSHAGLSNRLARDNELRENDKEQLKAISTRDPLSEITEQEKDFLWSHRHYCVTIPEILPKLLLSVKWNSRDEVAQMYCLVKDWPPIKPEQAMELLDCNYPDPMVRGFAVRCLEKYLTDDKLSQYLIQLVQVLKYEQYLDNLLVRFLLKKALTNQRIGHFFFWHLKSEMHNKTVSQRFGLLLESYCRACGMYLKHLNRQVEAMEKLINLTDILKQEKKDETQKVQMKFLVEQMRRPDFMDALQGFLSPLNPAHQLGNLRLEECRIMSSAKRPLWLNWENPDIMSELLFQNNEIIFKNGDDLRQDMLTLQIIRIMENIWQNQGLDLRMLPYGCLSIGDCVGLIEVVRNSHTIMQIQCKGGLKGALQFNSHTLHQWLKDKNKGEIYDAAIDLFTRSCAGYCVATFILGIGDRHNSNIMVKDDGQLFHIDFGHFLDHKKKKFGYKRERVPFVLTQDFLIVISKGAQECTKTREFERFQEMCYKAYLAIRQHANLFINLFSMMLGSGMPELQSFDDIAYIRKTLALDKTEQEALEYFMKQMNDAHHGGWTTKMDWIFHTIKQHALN
T1 sequence (P27986 whole entry partner, species assumed): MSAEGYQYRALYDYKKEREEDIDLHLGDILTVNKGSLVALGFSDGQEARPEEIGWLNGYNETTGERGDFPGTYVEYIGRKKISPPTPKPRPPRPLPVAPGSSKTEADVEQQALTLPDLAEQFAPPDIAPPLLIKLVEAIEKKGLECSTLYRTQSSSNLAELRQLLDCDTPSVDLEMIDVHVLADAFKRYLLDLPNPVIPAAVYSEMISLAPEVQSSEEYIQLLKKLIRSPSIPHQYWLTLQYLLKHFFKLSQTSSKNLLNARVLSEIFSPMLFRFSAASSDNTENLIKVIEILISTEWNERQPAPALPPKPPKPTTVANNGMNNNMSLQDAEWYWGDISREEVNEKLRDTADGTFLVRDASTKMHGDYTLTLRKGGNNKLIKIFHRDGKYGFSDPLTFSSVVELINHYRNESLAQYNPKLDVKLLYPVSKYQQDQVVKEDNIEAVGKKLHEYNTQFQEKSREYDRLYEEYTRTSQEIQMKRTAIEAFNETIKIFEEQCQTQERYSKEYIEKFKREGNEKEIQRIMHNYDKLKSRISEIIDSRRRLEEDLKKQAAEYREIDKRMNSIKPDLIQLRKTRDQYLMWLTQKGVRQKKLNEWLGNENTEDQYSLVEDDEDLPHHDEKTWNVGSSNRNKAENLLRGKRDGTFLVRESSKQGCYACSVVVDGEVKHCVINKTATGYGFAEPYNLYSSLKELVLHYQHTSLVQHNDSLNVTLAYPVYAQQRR

O=C(O)c1cccc(Cn2cc(-c3cccc4c(=O)cc(N5CCOCC5)[nH]c34)nn2)c1 [CL27e]
inhibition of PI3Kα (PI3Kα; high concentration (0.2 µM), 0.2 µM): > 80% and 81%
inhibition of PI3Kα (PI3Kα; low concentration (0.02 µM)): 23%

COC(=O)c1cccc(Cn2cc(-c3cccc4c(=O)cc(N5CCOCC5)[nH]c34)nn2)c1 [CL27c]
reactive oxygen species production (respiratory burst) [1]: efficiently and dose-dependently inhibited reactive oxygen species production
